These results are taken from US20040176361A1, “Fused heterocyclic compound and medicinal use thereof” (priority 2001, published 2004).

The melting point is the temperature of the solid-liquid transition.

Molecules are shown by their SMILES.

For the molecule `Cc1cccc2c(=O)[nH]c(CC3CN4CCC3CC4)nc12` (stereo not drawn), the melting point was 187 to 188 °C (dec.). The result for `CC1CN(c2cc3ccccc3c(=O)[nH]2)CCN1` (stereo not drawn) reads 164 to 167 °C. In turn, `CC1CN(c2cc3ccccc3c(=O)[nH]2)CC(C)N1` (stereo not drawn) registered a melting point of 208 to 210 °C. The result for `CN1CCC(c2cc3ncccc3c(=O)[nH]2)CC1` reads > 240 °C (dec.). For the molecule `Cc1c(C2CCN(C)CC2)[nH]c(=O)c2ccccc12`, the melting point lay within 202 to 204 °C. The result for `CN1CCCC(c2cc3ccccc3c(=O)[nH]2)C1` (stereo not drawn) reads 155 to 156 °C. Regarding `Cc1ccc2c(=O)[nH]c(C3CCN(C)CC3)cc2c1`, the melting point was in the range of 236 to 238 °C. Molecule `Cc1ccc2cc(C3CCN(C)CC3)[nH]c(=O)c2c1` gave a melting point of 239 to 241 °C. `Cc1cccc2cc(C3CCN(C)CC3)[nH]c(=O)c12` returned a melting point of 200 to 202 °C. In the case of `CN1CCC(c2cc3ccc(O)cc3c(=O)[nH]2)CC1.Cl` it was 284 to 286 °C; in that of `Cc1ccc2c(=O)[nH]c(N3CCN(C)CC3)cc2c1`, 242 to 243 °C (dec.); in that of `Cc1cccc2cc(N3CCN(C)CC3)[nH]c(=O)c12`, 224 to 225 °C (dec.). `Br.O=c1[nH]c(C2CCNCC2)cc2ccccc12`: the melting point is over 270 °C. The result for `Br.O=c1[nH]c(C2CCNCC2)c(-c2ccccc2)c2ccccc12` reads over 270 °C. The result for `CN(C)C1CCN(c2cc3ccccc3c(=O)[nH]2)C1` (stereo not drawn) [Example 2, 3-(3-dimethylaminopyrrolidine-1-yl)-2H-isoquinolin-1-one] reads 233 to 234 °C (dec.). As for `CCCN1CCN(c2cc3ccccc3c(=O)[nH]2)CC1` [Example 7, 3-(4-propylpiperazine-1-yl)-2H-isoquinolin-1-one], the melting point is 208 to 209 °C (dec.). The result for `CS(=O)(=O)N1CCN(c2cc3ccccc3c(=O)[nH]2)CC1` [Example 8, 3-(4-methanesulfonylpiperazin-1-yl)-2H-isoquinolin-1-one] reads 257 to 259 °C (dec.). In the case of `CCOC(=O)N1CCN(c2cc3ccccc3c(=O)[nH]2)CC1` [Example 9, 3-(4-ethoxycarbonylpiperazin-1-yl)-2H-isoquinolin-1-one] it was 191 to 192 °C (dec.); in that of `CN1CCCN(c2cc3ccccc3c(=O)[nH]2)CC1` [Example 10, 3-(4-methylhomopiperazin-1-yl)-2H-isoquinolin-1-one], 171 to 172 °C (dec.). For `CN(C)C1CCN(c2cc3ccc(Br)cc3c(=O)[nH]2)CC1` [Example 31, 7-bromo-3-(4-dimethylaminopiperidin-1-yl)-2H-isoquinolin-1-one], the melting point is 227 to 228 °C (dec.). In the case of `CN(C)C1CCN(c2cc3c(Br)cccc3c(=O)[nH]2)CC1` [Example 32, 5-bromo-3-(4-dimethylaminopiperidin-1-yl)-2H-isoquinolin-1-one] it was 214 to 215 °C (dec.); in that of `O=c1[nH]c(N2CCN(CCO)CC2)cc2c(F)cccc12` [Example 33, 5-fluoro-3-(4-(2-hydroxyethyl)piperazin-1-yl)-2H-isoquinolin-1-one], 207 to 208 °C (dec.). In the case of `Cc1ccc2c(=O)[nH]c(N3CCN(CCO)CC3)cc2c1` [Example 35, 3-(4-(2-hydroxyethyl)piperazin-1-yl)-6-methyl-2H-isoquinolin-1-one] it was 236 to 237 °C (dec.). The result for `Cc1cccc2cc(N3CCN(CCO)CC3)[nH]c(=O)c12` [Example 41, 3-[4-(2-hydroxyethyl)piperazin-1-yl]-8-methyl-2H-isoquinolin-1-one] reads 209 to 210 °C (dec.).

Consider `Cc1cccc2c(=O)[nH]c(N3CCN(CCCCN4CCN(C)CC4)CC3)cc12` [Example 75, 5-methyl-3-(4-(4-(4-methylpiperazin-1-yl)butyl)piperazin-1-yl)-2H-isoquinolin-1-one], for which the melting point was 202 to 203 °C (dec.).

For the molecule `O=c1[nH]c(N2CCN(CCCCN3CCCCC3)CC2)cc2ccc(Br)cc12` [Example 76, 7-bromo-3-{4-[4-(piperidin-1-yl)butyl]piperazin-1-yl}-2H-isoquinolin-1-one], the melting point is 211 to 212 °C (dec.).

Turning to `O=c1[nH]c(N2CCN(CCCCN3CCCCC3)CC2)cc2c(Cl)cccc12` [Example 77, 5-chloro-3-{4-[4-(piperidin-1-yl)butyl]piperazin-1-yl}-2H-isoquinolin-1-one], the melting point was 172 to 173 °C (dec.).

With `O=c1[nH]c(N2CCN(CCCCN3CCCCC3)CC2)cc2c(Br)cccc12` [Example 78, 5-bromo-3-{4-[4-(piperidin-1-yl)butyl]piperazin-1-yl}-2H-isoquinolin-1-one], the melting point was 165 to 166 °C (dec.). In turn, `CN1CCN(C(=O)c2cc3ccccc3c(=O)[nH]2)CC1` [Example 83, 3-((4-methylpiperazin-1-yl)carbonyl)-2H-isoquinolin-1-one] gave a melting point of 170 to 172 °C.

Take `COc1ccc(-c2c(C3CCN(C)CC3)[nH]c(=O)c3ccccc23)cc1` [Example 99, 4-(4-methoxyphenyl)-3-(1-methylpiperidin-4-yl)-2H-isoquinolin-1-one]: the melting point lay in the range of 209 to 211 °C. The result for `CN1CCC(c2[nH]c(=O)c3ccccc3c2-c2ccc(Cl)cc2)CC1` [Example 100, 4-(4-chlorophenyl)-3-(1-methylpiperidin-4-yl)-2H-isoquinolin-1-one] reads 254 to 256 °C; that for `CN1CCN(N2CC(=O)c3c(ccc4ccccc34)C2)CC1` [Example 114, 3-(4-methylpiperazin-1-yl)-2H-benz[f]isoquinolin-1-one], 253 to 254 °C (dec.); that for `CN(C)C1CCN(N2CC(=O)c3c(ccc4ccccc34)C2)CC1` [Example 115, 3-(4-dimethylaminopiperidin-1-yl)-2H-benz[f]isoquinolin-1-one], 232 to 233 °C (dec.). The result for `Cc1cccc2c(=O)[nH]c(C3CCC(N(C)C)CC3)nc12` (stereo not drawn) [Example 137, 8-methyl-2-(4-dimethylaminocyclohexan-1-yl)-3H-quinazolin-4-one] reads 181 to 183 °C (dec.); that for `CN(C)C1CCC(c2cc3ccccc3c(=O)[nH]2)CC1` (stereo not drawn) [Example 147, 3-(4-(dimethylamino)cyclohexan-1-yl)-2H-isoquinolin-1-one], 256 to 258 °C.

On to `CN1CCN(CCCc2cc3ccccc3c(=O)[nH]2)CC1` [Example 148, 3-(3-(4-methylpiperazin-1-yl)propyl)-2H-isoquinolin-1-one], for which the melting point was 120 to 122 °C. The result for `CN1CCN(c2cc3ccccc3c(=O)[nH]2)[C@@H](CO)C1` [Example 151, (R)-3-(2-hydroxymethyl-4-methylpiperazin-1-yl)-2H-isoquinolin-1-one] reads 172 to 174 °C; that for `CN1CCN(c2cc3ccccc3c(=O)[nH]2)[C@H](CO)C1` [Example 152, (S)-3-(2-hydroxymethyl-4-methylpiperazin-1-yl)-2H-isoquinolin-1-one], 169 to 171 °C.

`CCOC(=O)C1CN(c2cc3ccccc3c(=O)[nH]2)CCN1C` (stereo not drawn) [Example 154, 3-(3-ethoxycarbonyl-4-methylpiperazin-1-yl)-2H-isoquinolin-1-one]: the melting point was 105 to 109 °C.

In turn, `CN1CCC(C2Cc3ccccc3C(=O)N2)CC1` (stereo not drawn) [Example 158, 3-(1-methylpiperidin-4-yl)-3,4-dihydro-2H-isoquinolin-1-one] returned a melting point of 139 to 141 °C. In the case of `Cc1ccc(-c2c(C3CCN(C)CC3)[nH]c(=O)c3ccccc23)cc1` [Example 163, 4-(4-methylphenyl)-3-(1-methylpiperidin-4-yl)-2H-isoquinolin-1-one] it was 244 to 246 °C. In the case of `CN1CCC(c2[nH]c(=O)c3ccccc3c2-c2ccc(F)cc2)CC1` [Example 164, 4-(4-fluorophenyl)-3-(1-methylpiperidin-4-yl)-2H-isoquinolin-1-one] it was 269 to 271 °C; in that of `COc1ccccc1-c1c(C2CCN(C)CC2)[nH]c(=O)c2ccccc12` [Example 167, 4-(2-methoxyphenyl)-3-(1-methylpiperidin-4-yl)-2H-isoquinolin-1-one], 153 to 155 °C; in that of `Cc1cccc(-c2c(C3CCN(C)CC3)[nH]c(=O)c3ccccc23)c1` [Example 168, 4-(3-methylphenyl)-3-(1-methylpiperidin-4-yl)-2H-isoquinolin-1-one], 214 to 216 °C. In the case of `Cc1ccccc1-c1c(C2CCN(C)CC2)[nH]c(=O)c2ccccc12` [Example 169, 4-(2-methylphenyl)-3-(1-methylpiperidin-4-yl)-2H-isoquinolin-1-one] it was 249 to 251 °C; in that of `COc1cccc(-c2c(C3CCN(C)CC3)[nH]c(=O)c3ccccc23)c1` [Example 170, 4-(3-methoxyphenyl)-3-(1-methylpiperidin-4-yl)-2H-isoquinolin-1-one], 181 to 183 °C. Molecule `COCOc1cccc2c(=O)[nH]c(C3CCN(C)CC3)cc12` [Example 171, 5-methoxymethyloxy-3-(1-methylpiperidin-4-yl)-2H-isoquinolin-1-one] displayed a melting point of 194 to 196 °C.

`CN1CCC(c2cc3c(N(C)C)cccc3c(=O)[nH]2)CC1` [Example 180, 5-(dimethylamino)-3-(1-methylpiperidin-4-yl)-2H-isoquinolin-1-one] displayed a melting point of 216 to 218 °C. The result for `CN1CCC(c2[nH]c(=O)c3ccccc3c2-c2ccccc2F)CC1` [Example 182, 4-(2-fluorophenyl)-3-(1-methylpiperidin-4-yl)-2H-isoquinolin-1-one] reads 247 to 249 °C; that for `COCOc1cccc2c(=O)[nH]c(CCCN(C)C)cc12` [Example 185, 5-methoxymethyloxy-3-(3-dimethylaminopropyl)-2H-isoquinolin-1-one], 110 to 112 °C; that for `COCOc1cccc2c(=O)[nH]c(CCCCN(C)C)cc12` [Example 187, 5-methoxymethyloxy-3-(4-dimethylaminobutyl)-2H-isoquinolin-1-one], 109 to 111 °C.
